{"source": "patent US20060121498A1", "about": "“Enzymes involved in apoptosis” (EiRx Therapeutics Limited, priority 2003, published 2006)", "key": {"[1]": {"tested_on": "MCF-7 human breast cancer cells", "conditions": "inhibition of FAS with cerulenin; cited from earlier work"}, "bone marrow derived DC": {"tested_on": "bone marrow derived DC", "conditions": "pretreatment; cited from earlier work"}, "Walker 256 tumour": {"tested_on": "Walker 256 tumour", "conditions": "diet of 5.5% GLA; cited from earlier work"}, "TF-1 cells [2]": {"tested_on": "TF-1 cells", "assay": "Overexpression of identified genes in TF1 cells, viability by FSc/SSc", "type": "cell-based, human", "conditions": "96 h post transduction, versus control plasmid Pms*H", "excerpt": "To assess the apoptotic activity of the apoptosis-associated genes identified herein, TF1 cells are transduced with either a plasmid expressing the gene of interest coding sequence or a control plasmid (PMs*H). The gene coding sequence encoding the amino acid sequence set out in Table 1 is cloned into the retroviral expression vector pMSCV (Clontech). Plasmids are transfected into the retroviral packaging cell line Phoenix 293 (Standford) using the CalPhos Mammalian Transfection Kit (Clontech) according to the manufacturer's instructions. Retrovirus is harvested 72 hours later. Retrovirus is transduced to TF 1 cells by incubation for 18 hours. Media is changed and cells are incubated for an additional 96 hours.\nThe cells are examined for viability after 96 hours using forward scatter/side scatter parameters."}, "[3]": {"tested_on": "redox related genes such as heme oxygenase 1 and Glutathione reductase", "conditions": "cited from earlier work"}, "[4]": {"conditions": "cited from earlier work"}, "MIAPaCa-2 cells": {"tested_on": "MIAPaCa-2 cells", "conditions": "nude mouse, subcutaneous MIAPaCa-2; cited from earlier work"}, "MIAPaCa-2 and HuTu80": {"tested_on": "MIAPaCa-2 and HuTu80", "conditions": "cited from earlier work"}, "CAL27 tumour cell line": {"tested_on": "CAL27 tumour cell line", "conditions": "relatively low basal DPD activity; cited from earlier work"}, "neutrophils": {"tested_on": "neutrophils", "assay": "Neutrophil apoptosis, sub G1 analysis (DNA fragmentation)", "type": "cell-based, human", "procedure": "Neutrophils are isolated from the blood as described in WO 02/04657 and resuspended at a concentration of 2×10^6/ml. Five hundred microlitres are pipetted into wells of a 24 well plate and incubated in the presence or absence of survival factors.\nAfter this incubation, the neutrophils are carefully resuspended by gentle agitation and the total contents of the well are placed into an eppendorf and centrifuged @2800 rpm for 2 min @ RT in a minifuge. The cell pellet is carefully resuspended in 300 μl of ice cold hypotonic fluorochrome solution (50 μg/ml Propidium Iodide, 0.1% Sodium Citrate and 0.1% Triton X-100) and placed in a fridge for 24 h @ 4° C.\nPrepared samples are analysed with a FacsCalibre flow cytometer (Becton Dickinson) using double discrimination to ensure single cell suspension with Log Forward and Side Scatter Parameter acquisition.\nNeutrophils are seeded at 2×10^6/ml in a 24 well plate in full culture medium (1 ml/well). A PI3K inhibitor (Ly94002) is added to the neutrophils to a final concentration of 20 μM prior to the addition of GM-CSF (50 units/ml). Control wells received either no GM-CSF or GM-CSF (50 units/ml) in the absence of inhibitor. Neutrophils are cultured for 18 h at 37° C. prior to harvest and prepared for sub G1 analysis, as previously described.\nNeutrophils are seeded at 2×10^6/ml in a 24 well plate in full culture medium (1 ml/well). […]"}, "TF-1 cells [5]": {"tested_on": "TF-1 cells", "assay": "TF-1 apoptosis by light scatter analysis (live gate)", "type": "cell-based, human", "conditions": "48 h with GM-CSF 2 ng/ml (35% upon factor withdrawal)", "procedure": "Light Scatter Analysis takes advantage of the fact that by using the laser beam of a flow cytometer one can determine the size (Forward Scatter) and granularity (Side Scatter) of a cell. The morphological changes associated with apoptosis, such as decreased size (shrinkage) and granularity affect these parameters. As a consequence, cells undergoing apoptosis will move to the left and slightly down, from the parameters of a healthy population.\nTF-1 cells are plated into 24 well plates (2×10^5/ml) and are cultured for 48 h in the presence or absence of GM-CSF (2 ng/ml). Cells are then harvested by centrifugation (1000 rpm, for 10 min) and washed in PBS. The pellet is resuspended in PBS (2×10^5 cells/ml) and acquired by a FacsCalibre. Forward and Side scatter parameters are assessed using Cell Quest software.\nCulturing TF-1 cells in the absence of GM-CSF induces cell death. This death induces morphological changes in the Forward and Side Scatter parameters that is detected by FacsCalibre analysis. Consequently, by observing the percentage of cells in the live gate (which is an arbitrary region pre-set on a healthy population of TF-1 cells grown in the presence of GM-CSF (2 ng/ml)), one observes that there is a decrease in the percentage of cells with these light scatter parameters, when cytokine is withdrawn."}, "TF-1 cells [6]": {"tested_on": "TF-1 cells", "assay": "TF-1 apoptosis by sub G1 analysis", "type": "cell-based, human", "conditions": "48 h with GM-CSF (approximately 55% in its absence)", "procedure": "TF-1 cells are cultured for 48 h in the presence or absence of GM-CSF (2 ng/ml). Cells are then harvested by centrifugation (1000 rpm, for 10 min) and washed in PBS. The pellet is resuspended in PBS (2×10^5 cells/ml) and 1 ml is then added in a dropwise fashion to ice cold 70% EtoH whilst continuously vortexing. Cells are then permeabilized by incubating at −20° C. for 24 h. To stain DNA, cells are centrifuged and washed in PBS. Cells are resuspended in 500 μl Propidium Iodide Buffer (Propidium iodide (50 μg/ml; Sigma); RNAse A (50 μg/ml; Sigma) in Phosphate Buffered Saline (PBS; Sigma) for 15 min in the dark before flow cytometric analysis using a FacsCalibre (Becton Dickinson). Analysis is performed using Cell Quest software."}, "[7]": {"conditions": "relatively high basal DPD activity"}}, "note": "Where two headings read alike, the source gives them in different places.", "data": [{"molecule": "C/C=C/C/C=C/CCC(=O)[C@H]1O[C@H]1C(N)=O", "note": "[cerulenin]", "values": [{"measurement": "CPT-1 and fatty acid oxidation", "setting": "[1]", "value": "causes carnitine palmitoyltransferase-1 (CPT-1) inhibition and fatty acid oxidation inhibition"}]}, {"molecule": "CCCCCCCCCCCCCC(=O)O[C@@H]1[C@@H](C)[C@@]2(O)[C@@H](C=C(CO)C[C@]3(O)C(=O)C(C)=C[C@@H]23)[C@@H]2C(C)(C)[C@]12OC(C)=O", "note": "[PMA]", "values": [{"measurement": "endogenous ceramide levels and tumor-induced DC apoptosis", "setting": "bone marrow derived DC", "value": "reduced endogenous ceramide levels and protected DC from tumor-induced apoptosis"}]}, {"molecule": "CCCCC/C=C\\C/C=C\\C/C=C\\CCCCC(=O)O", "note": "[GLA, Gamma-linolenic acid]", "values": [{"measurement": "decrease in CTP1 activity", "setting": "Walker 256 tumour", "value": 62, "unit": "%"}, {"measurement": "reduction of tumour growth", "setting": "Walker 256 tumour", "value": 45, "unit": "%"}]}, {"molecule": "ELAFIN", "values": [{"measurement": "apoptosis/viability by FSc/SSc parameters", "setting": "TF-1 cells [2]", "value": "induces apoptosis in TF-1 cells"}]}, {"molecule": "N[C@H]1CONC1=O", "note": "[L-cycloserine]", "values": [{"measurement": "endogenous ceramide levels and tumor-induced DC apoptosis", "setting": "bone marrow derived DC", "value": "reduced endogenous ceramide levels and protected DC from tumor-induced apoptosis"}]}, {"molecule": "CCOC(=O)[C@@]1(CCCCCCOc2ccc(Cl)cc2)CO1", "note": "[etomoxir]", "values": [{"measurement": "expression of redox related genes", "setting": "[3]", "value": "induces up regulation of redox related genes"}]}, {"molecule": "O=c1[nH]cc(F)c(=O)[nH]1", "note": "[5FU, 5-fluorouracil]", "values": [{"measurement": "patients suffering from grade IV neutropenia", "setting": "[4]; patients with a decreased DPD activity", "value": 55, "unit": "%"}, {"measurement": "patients suffering from grade IV neutropenia", "setting": "[4]; patients with a normal DPD activity", "value": 13, "unit": "%"}]}, {"molecule": "O=c1[nH]c(=O)n(C2CCCO2)cc1F", "note": "(stereo not shown) [FT, tegafur]", "values": [{"measurement": "tumour growth inhibition", "setting": "MIAPaCa-2 cells", "value": "21+/−25%"}]}, {"molecule": "Oc1cc(O)c(Cl)cn1", "note": "[CDHP, 5-chloro-2,4-dihydroxypyridine]", "values": [{"measurement": "molar ratio (CDHP:5-FU) at maximum effect", "setting": "MIAPaCa-2 and HuTu80; enhancement of 5-FU cytotoxicity", "value": "more than 0.2"}, {"measurement": "cell proliferation, CDHP by itself", "setting": "MIAPaCa-2 and HuTu80; in vitro study", "value": "did not influence cell proliferation by itself"}, {"measurement": "5-FU cytotoxicity", "setting": "MIAPaCa-2 and HuTu80; [7]", "value": "enhanced 5-FU cytotoxicity in a concentration-dependent manner"}, {"measurement": "5-fluorouracil (5-FU) degradation", "setting": "MIAPaCa-2 and HuTu80; [7]", "value": "inhibit 5-fluorouracil (5-FU) degradation"}, {"measurement": "5-FU cytotoxicity", "setting": "CAL27 tumour cell line", "value": "did not have any effect on 5-FU cytotoxicity"}]}, {"molecule": "GM-CSF: 22 kDa proinflammatory cytokine released by several activated cell types including monocytes and T cells", "values": [{"measurement": "percentage of cells with a sub G1 profile", "setting": "neutrophils; neutrophils cultured overnight with GM-CSF (65% without)", "value": 9.7, "unit": "%"}, {"measurement": "percentage of cells in the live gate", "setting": "TF-1 cells [5]", "value": 77, "unit": "%"}, {"measurement": "cells with sub-G1 profiles", "setting": "TF-1 cells [6]", "value": 5, "unit": "%"}]}, {"molecule": "CCCCCCCCCCCCCCCCCCOC(=O)OC1C(O)C(O)C(CO)C(O)C1OC", "note": "(stereo not shown) [AKT inhibitor]", "values": [{"measurement": "GM-CSF mediated survival, sub G1 analysis", "setting": "neutrophils; inhibitor 20 μM plus GM-CSF 50 units/ml, 18 h", "value": "survival is abrogated"}]}]}
